This note sets out measurements from ChEMBL document CHEMBL1147160, “Bioactive constituents from the marine crinoid Himerometra magnipinna” (2007).

The source made the active and inactive calls. No cut-off for these calls is given here.

The subject of test [1] is Streptomyces. Briefly: Inhibition of hyphae formation in Streptomyces 85E at 80 ug/disk after 30 hrs by HF1 assay. Conditions: for zone of inhibition at 80 µg/disc: read-out: IZ. The class given is functional.
Test [2] deals with Streptomyces. Briefly: Inhibition of hyphae formation in Streptomyces 85E at 40 ug/disk after 30 hrs by HF1 assay. The class given is functional, organism-based.

For the compound `COC1=C(Br)[C@H](O)[C@@]2(C=C1Br)CC(C(=O)NCCCCNC(=O)C1=NO[C@]3(C=C(Br)C(OC)=C(Br)[C@@H]3O)C1)=NO2`, the result in the test on Streptomyces [1] was inactive. Regarding `COC1=C(Br)[C@H](O)[C@@]2(C=C1Br)CC(C(=O)NCCC(O)CCNC(=O)C1=NO[C@]3(C=C(Br)C(OC)=C(Br)[C@@H]3O)C1)=NO2`, the result in the test with Streptomyces [2] was inactive. In addition, the zone of inhibition at 80 µg/disc in the test on Streptomyces [1] was 11 mm.

In the case of `CCCc1cc(O)c2c(c1)C(C1c3cc(O)cc(O)c3C(=O)c3c(O)cc(C(O)CC)cc31)c1cc(O)cc(O)c1C2=O` (stereo not given), the result in the test on Streptomyces [2] was inactive. For the same compound, the zone of inhibition at 80 µg/disc with Streptomyces [1] came out at 11 mm.
